Data from US9381208B2, “Structure and use of 5′ phosphate oligonucleotides” (Rheinische Friedrich-Wilhelms-Universität, priority 2006, dated 2016).
{ppp} = triphosphate group

Tested on: human primary monocytes
Assay: IFN-α production in human primary monocytes transfected with RNA (ELISA)
Type: cell-based
Details: for IFN-α induction (*100%) mean: monocytes from three donors, 36 hours after transfection, normalized to the mean induction level of all oligonucleotides (=100%); for IFN-α-inducing activity conferred by the 5′ 4-nucleotide sequence: adenosine-initiated in vitro transcribed RNA oligonucleotides, FIG. 13

Row | Substance | IFN-α induction (*100%) mean | IFN-α-inducing activity conferred by the 5′ 4-nucleotide sequence
1 | accaggggac acacacacac acacacacac (ACCAGGGGACACACACACACACACACACAC; RNA, 5' {ppp}, backbone not given here) [SEQ ID No. 126] | 0.79 *100% | 
2 | agacggggac acacacacac acacacacac (AGACGGGGACACACACACACACACACACAC; RNA, 5' {ppp}, backbone not given here) [SEQ ID No. 116] | 0.62 *100% | 
3 | auauggggac acacacacac acacacacac (AUAUGGGGACACACACACACACACACACAC; RNA, 5' {ppp}, backbone not given here) [SEQ ID No. 129] | 0.89 *100% | 
4 | aaucggggac acacacacac acacacacac (AAUCGGGGACACACACACACACACACACAC; RNA, 5' {ppp}, backbone not given here) [SEQ ID No. 132] | 0.94 *100% | 
5 | acauggggac acacacacac acacacacac (ACAUGGGGACACACACACACACACACACAC; RNA, 5' {ppp}, backbone not given here) [SEQ ID No. 148] | 1.11 *100% | highest IFN-α-inducing activity
6 | auacggggac acacacacac acacacacac (AUACGGGGACACACACACACACACACACAC; RNA, 5' {ppp}, backbone not given here) [SEQ ID No. 139] | 0.99 *100% | 
7 | auugggggac acacacacac acacacacac (AUUGGGGGACACACACACACACACACACAC; RNA, 5' {ppp}, backbone not given here) [SEQ ID No. 167] | 1.31 *100% | highest IFN-α-inducing activity
8 | aaguggggac acacacacac acacacacac (AAGUGGGGACACACACACACACACACACAC; RNA, 5' {ppp}, backbone not given here) [SEQ ID No. 174] | 1.40 *100% | highest IFN-α-inducing activity
9 | agugggggac acacacacac acacacacac (AGUGGGGGACACACACACACACACACACAC; RNA, 5' {ppp}, backbone not given here) [SEQ ID No. 143] | 1.01 *100% | highest IFN-α-inducing activity
10 | agauggggac acacacacac acacacacac (AGAUGGGGACACACACACACACACACACAC; RNA, 5' {ppp}, backbone not given here) [SEQ ID No. 113] | 0.48 *100% | 
11 | acagggggac acacacacac acacacacac (ACAGGGGGACACACACACACACACACACAC; RNA, 5' {ppp}, backbone not given here) [SEQ ID No. 150] | 1.12 *100% | highest IFN-α-inducing activity
12 | agccggggac acacacacac acacacacac (AGCCGGGGACACACACACACACACACACAC; RNA, 5' {ppp}, backbone not given here) [SEQ ID No. 128] | 0.87 *100% | 
13 | aggcggggac acacacacac acacacacac (AGGCGGGGACACACACACACACACACACAC; RNA, 5' {ppp}, backbone not given here) [SEQ ID No. 131] | 0.91 *100% | 
14 | augcggggac acacacacac acacacacac (AUGCGGGGACACACACACACACACACACAC; RNA, 5' {ppp}, backbone not given here) [SEQ ID No. 159] | 1.23 *100% | highest IFN-α-inducing activity
15 | acccggggac acacacacac acacacacac (DNA ACCCGGGGACACACACACACACACACACAC; chemistry not fully specified) [SEQ ID No. 130] | 0.89 *100% | 
16 | aauuggggac acacacacac acacacacac (AAUUGGGGACACACACACACACACACACAC; RNA, 5' {ppp}, backbone not given here) [SEQ ID No. 119] | 0.67 *100% | 
